Measurements from patent US12516022B2, “Derivatives of aryl hydrocarbon receptor agonists” (AZORA THERAPEUTICS, INC., priority 2021, dated 2026).

Experiment: Stability of indirubin prodrugs in simulated fluids (FaSSIF, FaSSGF), 24 h at 37° C., UPLC-MS
Format: physicochemical
Description: (§1) 10.41 g fasted state simulated intestinal fluid (FaSSIF) buffer concentrate was dissolved in 240.3 g deionized water and 560 mg FaSSIF powder added. The mixture was stirred until complete dissolution observed. The test compound (approx. 1-3 mg) was placed in 5.00 mL of FaSSIF solution. Samples of the solution with the test compound were taken after 24 hours in at 37° C. (oven-controlled temperature).
as §1, with “36.78” for “10.41”, “gastric” for “intestinal”, “(FaSSGF)” for “(FaSSIF)”, “961.9” for “240.3”, “60” for “560”, “FaSSGF” for “FaSSIF”
UPLC-MS analysis of the samples taken at 24 hours was carried out on a Waters Acquity UPLC system consisting of an Acquity I-Class Sample Manager-FL, Acquity I-Class Binary Solvent Manager and an Acquity UPLC Column Manager. UV detection was afforded using an Acquity UPLC PDA detector (scanning from 210 to 400 nm), whilst mass detection was achieved using an Acquity QDa detector (mass scanning from 100-1250 Da; positive and negative modes simultaneously), and ELS detection was achieved using an Acquity UPLC ELS Detector. A Waters Acquity UPLC BEH C18 column (2.1 Å˜50 mm, […]) was used to separate the analytes. Samples were prepared by dissolution (with or without sonication) into 1 mL of 50% (v/v) MeCN in water. The resulting solutions were then filtered through a […] syringe filter before submitting for analysis. All of the solvents, including formic acid and 36% ammonia solution, were purchased as the HPLC grade.

Fraction (percent) of indirubin (FaSSGF 37° C. 24 h) [%]	Fraction (percent) of starting material (SM) (FaSSGF 37° C. 24 h) [%]	Fraction (percent) of indirubin (FaSSIF 37° C. 24 h) [%]	Fraction (percent) of starting material (SM) (FaSSIF 37° C. 24 h) [%]	SMILES
0	100	0	100	O=C1/C(=C2/C(=O)N(CSc3ccccc3)c3ccccc32)Nc2ccccc21
0	100	0	100	O=C1/C(=C2/C(=O)N(CS(=O)(=O)c3ccccc3)c3ccccc32)Nc2ccccc21
0	100	0	100	O=C(O)CCC(=O)OCN1C(=O)/C(=C2\Nc3ccccc3C2=O)c2ccccc21
0	100	0	100	CN(C)CCCCNC(=O)N1C(=O)/C(=C2\Nc3ccccc3C2=O)c2ccccc21
0	100	2	88	C=CCOC(=O)N1C(=O)/C(=C2\Nc3ccccc3C2=O)c2ccccc21

Continued, molecule first:

SMILES	Fraction (percent) of indirubin (FaSSGF 37° C. 24 h) [%]	Fraction (percent) of starting material (SM) (FaSSGF 37° C. 24 h) [%]	Fraction (percent) of indirubin (FaSSIF 37° C. 24 h) [%]	Fraction (percent) of starting material (SM) (FaSSIF 37° C. 24 h) [%]
O=C1/C(=C2/C(=O)N(C(=O)CCCN3CCOCC3)c3ccccc32)Nc2ccccc21	0	100	0	100
O=C1/C(=C2/C(=O)N(C(=O)NCCNS(=O)(=O)c3ccc([N+](=O)[O-])cc3)c3ccccc32)Nc2ccccc21	0	100	0	100
O=C1/C(=C2/C(=O)N(C(=O)N3CCOCC3)c3ccccc32)Nc2ccccc21	0	100	0	100
O=C1/C(=C2/C(=O)N(C(=O)NC3CCOCC3)c3ccccc32)Nc2ccccc21 [drawing 236]	13	68	10	57
CN1CCN(CCNC(=O)N2C(=O)/C(=C3\Nc4ccccc4C3=O)c3ccccc32)CC1	2	93	0	100
O=C1/C(=C2/C(=O)N(C(=O)NCCNS(=O)(=O)C(F)(F)F)c3ccccc32)Nc2ccccc21	1	93	0	100
O=C1/C(=C2/C(=O)N(CO)c3ccccc32)Nc2ccccc21 [drawing 219]	13	87	100	0
